# Earlier results as cited in publication PMC12337022, “Randomized, Double-Blind, Crossover Study Comparing the Bioavailability of 4 Ashwagandha (Withania somnifera (L.) Dunal) Extracts in Healthy Adults Under Fasting Condition” (Current Therapeutic Research, Clinical and Experimental, 2025).
# Where two headings read alike, the source gives them in different places.
# Experiments:
# [1] = tested on: Madin-Darby canine kidney cells
# [2] = set-up: method as in Dai et al 20; details: rat and human liver microsomes; ref Dai et al 20
# [3] = set-up: method as in Singh et al 25; details: Sprague-Dawley rats, orally at 25 mg/kg and intravenously at 2 mg/kg; ref Singh et al 25
# [4] = set-up: method as in Pires et al 27; details: Phase I dose-escalation, 13 participants, highest dose level tested, HPLC sensitivity 50 ng/mL; ref Pires et al 27
# [5] = Madin-Darby canine kidney cells, in vitro
"permeability [1, 5]",Compound,permeability ([1]; MDCK),further results
highly permeable,"1,2-deoxy-withastramonolide",,
low permeability,CC1=C(CO)C(=O)O[C@@H]([C@@H](C)[C@H]2CC[C@H]3[C@@H]4C[C@H]5O[C@]56[C@@H](O)C=CC(=O)[C@]6(C)[C@H]4CC[C@]23C)C1 [withaferin A],,half-life [2]: 5.6 min; oral bioavailability [3]: about 5%; detectability in plasma [4]: not detectable
,CC1=C(C)C(=O)O[C@@H]([C@](C)(O)[C@H]2CC[C@H]3[C@@H]4[C@@H]5O[C@@H]5[C@@]5(O)CC=CC(=O)[C@]5(C)[C@H]4CC[C@]23C)C1 [withanolide A],highly permeable,
,CC1=C(C)C(=O)O[C@@H]([C@@H](C)[C@H]2CC[C@H]3[C@@H]4[C@@H]5O[C@@H]5[C@@]5(O)CC=CC(=O)[C@]5(C)[C@H]4CC[C@]23C)C1 [withanolide B],highly permeable,
,CC1=C(CO)C(=O)O[C@@H]([C@@H](C)[C@H]2CC[C@H]3[C@@H]4CC=C5C[C@@H](O[C@@H]6O[C@H](CO[C@@H]7O[C@H](CO)[C@@H](O)[C@H](O)[C@H]7O)[C@@H](O)[C@H](O)[C@H]6O)C[C@H](O)[C@]5(C)[C@H]4CC[C@]23C)C1 [withanoside IV],low permeability,
,CC1=C(C)C(=O)O[C@@H]([C@@H](C)[C@H]2CC[C@H]3[C@@H]4CC=C5C[C@@H](O[C@@H]6O[C@H](CO[C@@H]7O[C@H](CO)[C@@H](O)[C@H](O)[C@H]7O)[C@@H](O)[C@H](O)[C@H]6O)C[C@H](O)[C@]5(C)[C@H]4CC[C@]23C)C1 [withanoside V],low permeability,

Compound,"permeability [1, 5]",permeability ([1]; MDCK),further results
CC1=C(C)C(=O)O[C@@H]([C@@H](C)[C@@]2(O)CC[C@H]3[C@@H]4[C@@H]5O[C@@H]5[C@@]5(O)CC=CC(=O)[C@]5(C)[C@H]4CC[C@@]32C)C1 [withanone],highly permeable,,
